Laboratory results published in patent US10457687B2, “Aminoacid derivatives, a process for their preparation and pharmaceutical compositions containing them” (LES LABORATOIRES SERVIER, priority 2015, dated 2019).

Target: Mcl-1 protein (Homo sapiens, UniProt Q07820)
Assay: Inhibition of Mcl-1 by the fluorescence polarisation technique (Method 1 or Method 2)
Assay type: binding
Conditions: for percentage fluorescence polarisation inhibition, Mcl-1 FP: partial inhibitors; for IC50: fluorescence polarisation, Fluorescein labelled ligand, Method 1 (not underlined) or Method 2 (underlined), read-out: IC50 (μM) Mcl-1 FP
Method: The relative binding potency of each compound was determined via Fluorescence Polarisation (FP).
An 11 point serial dilution of each compound was prepared in DMSO and 2 μl transferred into flat bottomed, low binding, 384-well plate (final DMSO concentration 5%). 38 μl of buffer (10 mM 4-(2-hydroxyethyl)-1-piperazineethanesulfonic acid [HEPES], 150 mM NaCl, 0.05% Tween 20, pH 7.4), containing the Fluorescein labelled ligand (final concentration 1 nM) and Mcl-1 protein (final concentration 5 nM) was then added.
An 11 point serial dilution of each compound was prepared in DMSO and 2 μl transferred into flat bottomed, low binding, 384-well plate (final DMSO concentration 5%). 38 μl of buffer (20 mM Na2HPO4, 1 mM EDTA, 50 mM NaCl, pH 7.4), containing the Fluorescein labelled ligand (final concentration 10 nM) and Mcl-1 protein (final concentration 10 nM) was then added.

Mcl-1 protein, sequence (Q07820 whole entry): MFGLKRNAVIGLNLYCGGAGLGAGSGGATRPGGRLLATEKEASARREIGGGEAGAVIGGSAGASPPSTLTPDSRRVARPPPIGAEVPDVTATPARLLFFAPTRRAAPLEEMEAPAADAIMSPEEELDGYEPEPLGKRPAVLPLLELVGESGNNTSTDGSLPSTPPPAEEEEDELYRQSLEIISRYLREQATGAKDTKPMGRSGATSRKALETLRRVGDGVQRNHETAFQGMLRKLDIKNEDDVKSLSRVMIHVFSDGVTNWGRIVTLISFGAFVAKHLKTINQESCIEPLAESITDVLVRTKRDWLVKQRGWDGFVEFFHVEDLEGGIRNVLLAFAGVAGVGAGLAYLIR

SMILES	IC50 [µM]	other results
Cc1c(Cl)cccc1-c1c(C(C)C)sc2ncnc(N[C@H](Cc3ccccc3)C(=O)O)c12 [Example 220, N-[(5Ra)-5-(3-chloro-2-methylphenyl)-6-(propan-2-yl)thieno[2,3-d]pyrimidin-4-yl]-D-phenylalanine]		percentage fluorescence polarisation inhibition, Mcl-1 FP (@ 10 μM test compound): 31.7% @ 10 μM
CCc1sc2ncnc(NC(Cc3ccccc3)C(=O)OC)c2c1-c1cccc2ccccc12 [Example 255, methyl N-[6-ethyl-(5Ra)-5-(naphthalen-1-yl)thieno[2,3-d]pyrimidin-4-yl]-D-phenylalaninate]		percentage fluorescence polarisation inhibition, Mcl-1 FP (@ 200 μM test compound): 41.08% @ 200 μM
CCc1sc2ncnc(N[C@@H](C(=O)O)c3ccccc3)c2c1-c1cccc2ccccc12 (single isomer, unassigned) [Example 160]	11.7	
C=C(C)c1sc2ncnc(NC(Cc3ccccc3)C(=O)O)c2c1-c1cccc2ccccc12 [Example 106, N-[(5Sa)-5-(naphthalen-1-yl)-6-(prop-1-en-2-yl)thieno[2,3-d]pyrimidin-4-yl]-D-phenylalanine]	0.065	
CC(C)c1sc2ncnc(N[C@H](Cc3ccccc3)C(=O)O)c2c1-c1cccc2ccccc12 (single isomer, unassigned) [Example 202, N-[5-(naphthalen-1-yl)-6-(propan-2-yl)thieno[2,3-d]pyrimidin-4-yl]-D-phenylalanine]	0.751	
CCc1sc2ncnc(N[C@H](Cc3ccccc3C(F)(F)F)C(=O)O)c2c1-c1cccc(Cl)c1C [Example 137, N-[(5Ra)-5-(3-chloro-2-methylphenyl)-6-ethylthieno[2,3-d]pyrimidin-4-yl]-2-(trifluoromethyl)-D-phenylalanine]		percentage fluorescence polarisation inhibition, Mcl-1 FP (@ 50 μM test compound): 71.05% @ 50 μM
CCc1sc2ncnc(N[C@H](Cc3ccccc3[N+](=O)[O-])C(=O)O)c2c1-c1cccc(Cl)c1C [Example 135, N-[(5Ra)-5-(3-chloro-2-methylphenyl)-6-ethylthieno[2,3-d]pyrimidin-4-yl]-2-nitro-D-phenylalanine]		percentage fluorescence polarisation inhibition, Mcl-1 FP (@ 50 μM test compound): 75.25% @ 50 μM
CCc1sc2ncnc(NC(Cc3ccccc3)C(=O)O)c2c1-c1ccc(OCCN2CCOCC2)c(Cl)c1C [Example 61, N-((5Sa)-5-{3-chloro-2-methyl-4-[2-(morpholin-4-yl)ethoxy]phenyl}-6-ethylthieno[2,3-d]pyrimidin-4-yl)-D-phenylalanine]	0.036	
Cc1c(-c2c(-c3ccsc3)sc3ncnc(NC(Cc4ccccc4F)C(=O)O)c23)ccc(OCCN2CCN(C)CC2)c1Cl [Example 33, N-[(5Ra)-5-{3-chloro-2-methyl-4-[2-(4-methylpiperazin-1-yl)ethoxy]phenyl}-6-(thiophen-3-yl)thieno[2,3-d]pyrimidin-4-yl]-2-fluoro-D-phenylalanine]		percentage fluorescence polarisation inhibition, Mcl-1 FP (@ 10 μM test compound): 54.9% @ 10 μM
O=C(O)[C@@H](Cc1ccccc1)Nc1ncnc2sc(C(F)F)c(-c3cccc4ccccc34)c12 (single isomer, unassigned) [Example 207, N-[6-(difluoromethyl)-5-(naphthalen-1-yl)thieno[2,3-d]pyrimidin-4-yl]-D-phenylalanine]	0.136	
CCc1sc2ncnc(NC(Cc3ccccc3)C(=O)O)c2c1-c1cccc2c1c(Cl)cn2CCCN1CCN(C)CC1 [Example 241, N-((5Ra)-5-{3-chloro-1-[3-(4-methylpiperazin-1-yl)propyl]-1H-indol-4-yl}-6-ethyl-thieno[2,3-d]pyrimidin-4-yl)-D-phenylalanine]	14.3	
O=C(O)C(Cc1ccccn1)Nc1ncnc2sc(C(F)F)c(-c3cccc4ccccc34)c12 [Example 250, N-[6-(difluoromethyl)-(5Sa)-5-(naphthalen-1-yl)thieno[2,3-d]pyrimidin-4-yl]-3-pyridin-2-yl-D-alanine]	0.617	
CCc1sc2ncnc(N[C@@H](C(=O)O)c3ccccc3-c3ccccc3)c2c1-c1cccc2ccccc12 (single isomer, unassigned) [Example 188]	21.3	
CC(O)c1sc2ncnc(N[C@H](Cc3ccccc3)C(=O)O)c2c1-c1cccc2ccccc12 (single isomer, unassigned) [Example 205, N-[6-(1-hydroxyethyl)-5-(naphthalen-1-yl)thieno[2,3-d]pyrimidin-4-yl]-D-phenylalanine]		percentage fluorescence polarisation inhibition, Mcl-1 FP (@ 100 μM test compound, 100 µM): 26.2% @ 100 μM
CCc1sc2ncnc(N[C@H](Cc3ccccc3)C(=O)OC)c2c1-c1cccc2ccccc12 [Example 254, methyl N-[6-ethyl-(5Sa)-5-(naphthalen-1-yl)thieno[2,3-d]pyrimidin-4-yl]-D-phenylalaninate]		percentage fluorescence polarisation inhibition, Mcl-1 FP (@ 200 μM test compound): 22.08% @ 200 μM
C=Cc1sc2ncnc(NC(Cc3ccccc3)C(=O)O)c2c1-c1cccc2ccccc12 [Example 103, N-[6-ethenyl-(5Ra)-5-(naphthalen-1-yl)thieno[2,3-d]pyrimidin-4-yl]-D-phenylalanine]	0.715	

More lines, main results first:

IC50 [µM]	SMILES	other results
0.597	CCc1sc2ncnc(NC(Cc3cccnc3)C(=O)O)c2c1-c1cccc2ccccc12 [Example 162, N-[6-ethyl-(5Sa)-5-(naphthalen-1-yl)thieno[2,3-d]pyrimidin-4-yl]-3-pyridin-3-yl-D-alanine]	
0.466	CCc1sc2ncnc(NC(Cc3ccccc3O)C(=O)O)c2c1-c1cccc2ccccc12 [Example 174, N-[6-ethyl-(5Sa)-5-(naphthalen-1-yl)thieno[2,3-d]pyrimidin-4-yl]-2-hydroxy-D-phenylalanine]	
0.047	CCc1sc2ncnc(NC(Cc3ccccn3)C(=O)O)c2c1-c1cccc(Cl)c1C [Example 152, N-[(5Sa)-5-(3-chloro-2-methylphenyl)-6-ethylthieno[2,3-d]pyrimidin-4-yl]-3-pyridin-2-yl-D-alanine]	
2.32	CCc1sc2ncnc(NC(Cc3ccccc3OCCN3CCN(C)CC3)C(=O)O)c2c1-c1cccc(Cl)c1C [Example 154, N-[(5Sa)-5-(3-chloro-2-methylphenyl)-6-ethylthieno[2,3-d]pyrimidin-4-yl]-2-[2-(4-methylpiperazin-1-yl)ethoxy]-D-phenylalanine]	
28.8	CCc1sc2ncnc(NC(Cc3ccc(O)cc3)C(=O)O)c2c1-c1cccc2ccccc12 [Example 172, N-[6-ethyl-(5Ra)-5-(naphthalen-1-yl)thieno[2,3-d]pyrimidin-4-yl]-D-tyrosine]	
34.6	CCc1sc2ncnc(N[C@H](Cc3c[nH]cn3)C(=O)O)c2c1-c1cccc2ccccc12 [Example 190, N-[6-ethyl-5-(naphthalen-1-yl)thieno[2,3-d]pyrimidin-4-yl]-D-histidine]	
0.02	CCc1sc2ncnc(NC(Cc3ccccc3)C(=O)O)c2c1-c1cc(Cl)c(O)c(Cl)c1C [Example 53, N-[(5Sa)-5-(3,5-dichloro-4-hydroxy-2-methylphenyl)-6-ethylthieno[2,3-d]pyrimidin-4-yl]-D-phenylalanine]	
0.913	CCc1sc2ncnc(NC(Cc3ccccc3C#N)C(=O)O)c2c1-c1cccc(Cl)c1C [Example 127, N-[(5Sa)-5-(3-chloro-2-methylphenyl)-6-ethylthieno[2,3-d]pyrimidin-4-yl]-2-cyano-D-phenylalanine]	
0.495	CCc1sc2ncnc(NC(Cc3c(F)cccc3F)C(=O)O)c2c1-c1cccc(Cl)c1C [Example 131, N-[(5Sa)-5-(3-chloro-2-methylphenyl)-6-ethylthieno[2,3-d]pyrimidin-4-yl]-2,6-difluoro-D-phenylalanine]	
